From US8450333B2, “Molecules for regulating cell death” (The Regents of The University of California, priority 2003, dated 2013)

Tests used:
mammalian COS cells [1] = experiment: Mitochondrial fragmentation induced by staurosporine (STS) in COS cells; assay type: cell-based; details: COS cells stimulated with STS; mfisi-1 at 50 μM; n=100
Text: As indicated above, we observed that mfisi-1 causes changes in mitochondrial morphology in mammalian cells that are consistent with a block in mitochondrial fission. Thus, we examined the effects of mfisi-1 on mitochondrial fragmentation caused by the intrinsic apoptotic stimulus staurosporine (STS) in mammalian COS cells. […] These observations indicate that mfisi-1 retards apoptosis-stimulated Drp1-dependent mitochondrial fission.

mammalian COS cells [2] = experiment: Mitochondrial morphology in mammalian COS cells; assay type: cell-based
Text: Drp1, the mammalian mitochondrial fission DRP, has a high degree of similarity and identity to its yeast ortholog, Dnm1. This encouraged us to exploit the chemical genetic approach and examine the effects of mfisi-1 on mitochondrial morphology in mammalian cells. In mammalian cells, it has been established that when fission is retarded by expression of dominant-negative Drp1, mitochondria become progressively more interconnected, form net-like structures, and collapse into degenerate perinuclear structures in cells. Remarkably, the addition of mfisi-1 to mammalian COS cells in culture caused a rapid and reversible change in mitochondrial morphology equivalent to that observed upon expression of dominant negative Drp1 in double-binded experiments (FIG. 12, n=100: untreated; 0% collapsed nets, 14% loose nets, 70% reticular, 15% fragmented; mfisi-1 treated; n=100, 19% collapsed nets, 45% loose nets, 36% reticular, 0% fragmented). The EC50 of mfisi-1 effects on mitochondrial morphology in mammalian cells is similar to that observed for the effect of mfisi-1 on mitochondrial morphology in yeast (EC50=10 µM).

recombinant Dnm1 = biological target: T1, recombinant Dnm1 (Saccharomyces cerevisiae, UniProt P54861); experiment: Dnm1 GTPase activity, radioactive TLC-based assay; assay type: biochemical, yeast
T1 construct: made in house; host or cells: insect cells (baculovirus expression system)
T1 sequence (P54861 1-757): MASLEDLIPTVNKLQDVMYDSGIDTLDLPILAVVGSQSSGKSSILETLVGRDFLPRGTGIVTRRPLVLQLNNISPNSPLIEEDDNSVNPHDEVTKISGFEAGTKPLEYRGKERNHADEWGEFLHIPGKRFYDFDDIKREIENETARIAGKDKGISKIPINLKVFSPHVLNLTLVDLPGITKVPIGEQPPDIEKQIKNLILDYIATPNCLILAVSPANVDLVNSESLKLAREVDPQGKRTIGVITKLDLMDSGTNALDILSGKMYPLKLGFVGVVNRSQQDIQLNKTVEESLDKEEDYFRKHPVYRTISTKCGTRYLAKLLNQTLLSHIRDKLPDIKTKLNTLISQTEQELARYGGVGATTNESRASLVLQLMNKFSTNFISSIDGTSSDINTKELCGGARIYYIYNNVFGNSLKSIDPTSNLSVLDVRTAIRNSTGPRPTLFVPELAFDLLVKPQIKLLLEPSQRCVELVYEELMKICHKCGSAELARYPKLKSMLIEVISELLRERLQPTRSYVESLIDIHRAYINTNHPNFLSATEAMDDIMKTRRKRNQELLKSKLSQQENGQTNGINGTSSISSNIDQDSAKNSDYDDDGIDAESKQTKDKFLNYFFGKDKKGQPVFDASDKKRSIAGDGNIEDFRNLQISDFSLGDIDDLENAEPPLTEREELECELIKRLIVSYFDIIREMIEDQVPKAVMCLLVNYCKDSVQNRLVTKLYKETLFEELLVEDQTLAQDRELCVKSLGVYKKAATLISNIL
Text: In order to discern a detailed mechanism for mitochondrial fission, we have begun to purify and characterize activities associated with known fission components, with the ultimate goal of reconstituting this event in vitro. Towards this goal, we have successfully expressed and purified active recombinant Dnm1 (the yeast mitochondrial fission DRP) from insect cells, using a baculovirus expression system. Using an established radioactive TLC-based assay for GTPase activity, we characterized the kinetic properties of recombinant Dnm1 under low salt conditions (FIG. 10A). […] The Km for GTP for Dnm1 is near 200 μM, greater than that observed for assembled dynamin (˜10 μM). The significance of this difference as it relates to the function of these DRPs will be interesting to determine.
Determining the mechanism of mfisi-1 inhibition is critical for assessing how DRPs function in mitochondrial fission. We will perform standard steady-state kinetic assays to determine the mechanism of inhibition by mfisi-1 using established GTPase assays in the presence of variable concentrations of substrate (GTP) and mfisi-1. […] Nucleotides are resolved using thin layer chromatography, and quantification of GTP and GDP product is performed using a Phosphorimager. All rates are calculated using time points where product formation is linear over time.

## COc1cc(-n2c(S)nc3ccccc3c2=O)c(Cl)cc1Cl [mfisi-1, 3-(2,4-Dichloro-5-methoxy-phenyl)-2-mercapto-3H-quinazolin-4-one]
Mammalian COS cells [1]
  % collapsed nets: 0%
  % fragmented: 46%
  % loose nets: 8%
  % reticular: 46%
Mammalian COS cells [2]; COS cells, n=100
  % collapsed nets: 19%
  % fragmented: 0%
  % loose nets: 45%
  % reticular: 36%
Mammalian COS cells [2]; COS, mammalian cells, similar to yeast, read-out: EC50, effects on mitochondrial morphology
  EC50: 10 µM
Recombinant Dnm1
  IC50: ~10 µM
Recombinant Dnm1; mfisi-1 at its IC50, GTP 10 μM-2 mM
  mode of inhibition versus GTP: NOT a pure competitive inhibitor
